Test [1] relates to hTAS1R2 and tas1r3-hN-rTM. As to the kind of experiment: Calcium mobilization (FLIPR), chimera with human N-terminus and rat transmembrane region. It is filed as cell-based. The following applies: asp 15 mM; cyc 30 mM; neo 0.1 mM; sac 10 mM; suc 100 mM; stev 1 mM. The source says:
The receptor chimeras of Tas1r3 were constructed using recombinant PCR. In the first reactions the N-terminal and the C-terminal part containing the seven transmembrane domains of hTAS1R3 and rTas1r3 were amplified from plasmid DNA using Ultra Pfu Polymerase (Stratagene). For the hTAS1R3 and rTas1r3 N-termini the forward vector-anchored primer (CMV: […]) and a reverse gene specific primer ([…]) were used. The hTAS1R3 and rTas1r3 C-terminal part were amplified with forward gene specific primer ([…]) and a reverse vector-anchored primer ([…]). PCR conditions were: 5 min, 94°C, 24 cycles 1 min 94°C, 0.5 min 64°C, 2 min 72°C; 5 min 72°C. The amplicons were purified using the Highpure PCR Product Purification Kit (Roche) and used as template for the second PCR. To create the chimeric receptor tas1r3-hN-rTM, equimolar amounts (~50 ng) of the hTAS1R3 N-terminus and rTas1r3 transmembrane domains were combined without additional oligonucleotides. PCR conditions were: 5 min 94°C; 15 cycles of 2 min 64°C, 2 min 72°C and 0.5 min 94°C; followed by 5 min 64°C and 10 min 72°C. […] These chimeras were cloned into pcDNA5/FRT.
The cDNAs were transiently transfected into HEK293T cells stably expressing the chimeric G-protein subunit Gα16gust44 [20] using Lipofectamine 2000 (Invitrogen) according to the manufacturer's protocol. 3–4 hours after transfection, DMEM was replaced by low-glucose DMEM supplemented with GlutaMAX and 10% dialyzed FBS (Invitrogen). 22–44 hours later, cells were loaded for 1 hour with the calcium sensitive dye Fluo4-AM (2 μg/ml in DMEM, Molecular Probes). Cells were washed 3x in solution C1 (130 mM NaCl, 5 mM KCl, 10 mM Hepes, 2 mM CaCl2, and 5 mM Glucose, pH 7,4). Calcium mobilization was monitored by an automated fluorometric imaging plate reader (FLIPR, Molecular Devices). Ligands (Sigma-Aldrich, Merck) were dissolved in C1 solution. All data were collected from at least two independent experiments carried out in triplicate. The obtained calcium signals were corrected for the response of mock transfected cells and normalized to the fluorescence of cells prior to the stimulus using ΔF/F=(F-F0)/F0. […]
All sweeteners were used at concentrations which were close to the maximal obtainable signal. (c) Alignment of amino acid sequences of the human, rat, and mouse Tas1r3 transmembrane regions. Color code: white, identical; grey, conservative; dark-grey, similar; black, non-similar. TM, predicted transmembrane domain, indicated by a black bar. Dots indicate the location of the primer used to generate the chimeric rat-human Tas1r3 receptors. Asterisks denote amino acid positions that are identical in rat and mouse but variable between humans and rodents and are located in the extracellular loops or the upper part of the transmembran regions. Boxes indicate the several rTas1r3 mutants m1 – m7, including the amino acid substitutions. m6/1 – m6/3 signified the reconverted amino acid of mutant m6.
For orientation: Calcium flux is commonly read through the fluorescence of an indicator in the cells.

The next test deals with T1, rTas1r2-hTAS1R3 (UniProt Q7RTX0+Q9Z0R7).
T1 sequence (Q9Z0R7 20-843): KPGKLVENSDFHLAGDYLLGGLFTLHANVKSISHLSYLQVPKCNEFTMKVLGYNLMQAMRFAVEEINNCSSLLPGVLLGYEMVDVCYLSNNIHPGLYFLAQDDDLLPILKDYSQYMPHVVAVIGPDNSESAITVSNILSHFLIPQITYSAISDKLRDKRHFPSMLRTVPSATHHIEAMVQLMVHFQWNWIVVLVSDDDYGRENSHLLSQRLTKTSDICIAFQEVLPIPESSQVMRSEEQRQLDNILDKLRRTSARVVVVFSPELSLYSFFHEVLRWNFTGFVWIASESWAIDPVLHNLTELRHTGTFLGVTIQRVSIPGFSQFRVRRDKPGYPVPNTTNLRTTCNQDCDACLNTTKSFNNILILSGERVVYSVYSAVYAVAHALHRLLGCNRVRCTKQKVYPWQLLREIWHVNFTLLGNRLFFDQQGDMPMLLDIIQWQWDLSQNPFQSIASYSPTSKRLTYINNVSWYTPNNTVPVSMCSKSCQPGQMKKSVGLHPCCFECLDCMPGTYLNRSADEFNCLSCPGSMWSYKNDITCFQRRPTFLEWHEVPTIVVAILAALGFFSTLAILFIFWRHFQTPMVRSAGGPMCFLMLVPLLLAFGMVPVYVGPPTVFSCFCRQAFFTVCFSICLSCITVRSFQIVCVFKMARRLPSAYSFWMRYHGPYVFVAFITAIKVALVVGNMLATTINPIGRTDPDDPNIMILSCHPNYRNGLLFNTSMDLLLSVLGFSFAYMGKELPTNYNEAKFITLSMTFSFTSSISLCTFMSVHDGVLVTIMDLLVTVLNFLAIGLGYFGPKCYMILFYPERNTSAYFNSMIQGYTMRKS
T1 sequence (Q7RTX0 21-852): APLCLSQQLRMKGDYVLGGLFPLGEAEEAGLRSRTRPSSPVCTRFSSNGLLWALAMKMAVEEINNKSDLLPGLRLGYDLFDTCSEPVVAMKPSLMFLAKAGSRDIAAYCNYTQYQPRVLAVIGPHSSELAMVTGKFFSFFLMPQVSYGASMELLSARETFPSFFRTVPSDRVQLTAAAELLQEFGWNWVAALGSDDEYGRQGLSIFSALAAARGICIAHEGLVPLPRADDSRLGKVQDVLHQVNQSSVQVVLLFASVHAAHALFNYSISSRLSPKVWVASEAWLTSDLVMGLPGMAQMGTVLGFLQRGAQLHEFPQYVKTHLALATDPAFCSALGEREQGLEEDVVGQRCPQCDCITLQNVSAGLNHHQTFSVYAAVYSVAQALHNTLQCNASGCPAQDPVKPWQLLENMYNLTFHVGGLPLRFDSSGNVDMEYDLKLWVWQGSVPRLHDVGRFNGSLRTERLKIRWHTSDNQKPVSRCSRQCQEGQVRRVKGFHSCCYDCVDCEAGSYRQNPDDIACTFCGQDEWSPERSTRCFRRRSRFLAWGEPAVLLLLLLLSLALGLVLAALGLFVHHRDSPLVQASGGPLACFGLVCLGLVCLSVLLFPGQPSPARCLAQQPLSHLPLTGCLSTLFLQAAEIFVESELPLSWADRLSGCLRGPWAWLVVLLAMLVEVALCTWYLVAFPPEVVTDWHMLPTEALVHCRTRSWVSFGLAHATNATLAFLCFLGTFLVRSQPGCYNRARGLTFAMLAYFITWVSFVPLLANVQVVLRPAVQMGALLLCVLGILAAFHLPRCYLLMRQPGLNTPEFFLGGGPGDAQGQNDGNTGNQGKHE
The experiment in a line: Calcium mobilization (FLIPR), interspecies combination. Particulars: asp 15 mM; cyc 30 mM; neo 0.1 mM; sac 10 mM; suc 100 mM; stev 1 mM; markedly reduced amplitudes.

Structures are written as SMILES. Where a SMILES comes first, the peptide text is derived from it.

As for `O=S(=O)(O)NC1CCCCC1` [cyclamate], the “activation of receptor (calcium response)” value in test [1] is on record as “not”; on rTas1r2-hTAS1R3, “clearly responded”.
On the same counts, the results for `COC(=O)[C@H](Cc1ccccc1)NC(=O)[C@@H](N)CC(=O)O` [aspartame] (HELM PEPTIDE1{D.F.[CO[*:1]]}$$$$V2.0) are “responded” and “failed to activate”.
The corresponding values for `OC[C@H]1O[C@@](CO)(O[C@H]2O[C@H](CO)[C@@H](O)[C@H](O)[C@H]2O)[C@@H](O)[C@@H]1O` [sucrose] are “responded” and “failed to activate”.
On the same counts, the results for `COc1ccc(CCC(=O)c2c(O)cc(O[C@@H]3O[C@H](CO)[C@@H](O)[C@H](O)[C@H]3O[C@@H]3O[C@@H](C)[C@H](O)[C@@H](O)[C@H]3O)cc2O)cc1O` [neohesperidine dihydrochalcone] are “not” and “clearly responded”.
Take `C=C1C[C@@]23CC[C@H]4[C@@](C)(CCC[C@@]4(C)C(=O)O[C@@H]4O[C@H](CO)[C@@H](O)[C@H](O)[C@H]4O)[C@@H]2CC[C@]1(O[C@@H]1O[C@H](CO)[C@@H](O)[C@H](O)[C@H]1O[C@@H]1O[C@H](CO)[C@@H](O)[C@H](O)[C@H]1O)C3` [stevioside]: the “activation of receptor (calcium response)” value is reported as “responded” in test [1] and “failed to activate” on rTas1r2-hTAS1R3.

These data come from publication PMC1084349 (BMC Neuroscience, 2005).
